Test results taken from a melting point compilation (Tetko et al.).
Residues, ends and D or L forms follow the SMILES beside them. *: point of attachment. Boc = CC(C)(C)OC(=O)*; Bn = c1ccc(C*)cc1

| melting point [°C] | SMILES |
| --- | --- |
| 52 | Cc1cc(C(C)(C)C)c(O)c(C)c1CCCCCCCCCCCCCCCCCCCOCCCCCCCCCCCCCCCCCCCc1c(C)cc(C(C)(C)C)c(O)c1C |
| -60 | CCC(C)C=O (configuration not stated) |
| 142 to 144 | O=C(O)CCOC1COCCCC=CC2CC2(C(=O)NS(=O)(=O)C2CC2)NC(=O)C2(NC(=O)Nc3ccccc3)CC(OC(=O)N(CCC(=O)O)c3ccccc3)CN2C1=O (configuration not stated) |
| 76 | CCCCCCCCCCS(=O)(=O)c1c(S(=O)(=O)CCCCCCCCCC)c(S(=O)(=O)CCCCCCCCCC)c(S(=O)(=O)CCCCCCCCCC)c(S(=O)(=O)CCCCCCCCCC)c1S(=O)(=O)CCCCCCCCCC |
| 238 to 240 | CCOC(=O)c1c(I)c(NS(=O)(=O)c2cccc3c(N(C)C)cccc23)c(I)c(N(CC)C(C)=O)c1I |
| 90 to 100 | CC1CNc2c(cccc2S(=O)(=O)NC(CCCc2cn(C(c3ccccc3)(c3ccccc3)c3ccccc3)cn2)C(=O)N2CCC(C)CC2C(=O)NOCc2ccccc2)C1 (configuration not stated) |
| 122 to 124 | N=C(Nc1ccc2[nH]cc(C3=CCN4CCCC4C3)c2c1)c1cccs1 (configuration not stated) |
| 164 to 166 | O=S(=O)(Oc1ccc2c(OS(=O)(=O)c3ccc(OCc4ccccc4)cc3)c3cc(OS(=O)(=O)c4ccc(OCc5ccccc5)cc4)ccc3cc2c1)c1ccc(OCc2ccccc2)cc1 |
| 116 | CCN(CC)CCN=S(=O)(c1ccccc1)c1cccs1 (configuration not stated) |
| 227 | CC(=O)c1cc2cc(Br)ccc2oc1=O |
| 160 to 168 | COc1cccc(-c2cc3ncnc(Nc4ccc5[nH]ccc5c4)c3s2)c1 |
| 70 to 71 | CCCCCCCCCCCCCCCCCCOC(=O)CSCc1cc(CSCC(=O)OCCCCCCCCCCCCCCCCCC)c(O)c(CSCC(=O)OCCCCCCCCCCCCCCCCCC)c1 |
| 167 | COc1cc(C(=O)c2c(C)c(C(=O)OCc3ccccc3)c3cc(N(C)C)ccn23)ccc1[N+](=O)[O-] |
| 93 to 94 | CC(NC(=O)C(Cc1ccc(OCc2ccccc2)cc1)NC(=O)C(COCc1ccccc1)NC(=O)C(Cc1c[nH]c2ccccc12)NC(=O)OC(C)(C)C)C(=O)O (configuration not stated) (Boc-WS(Bn)Y(Bn)A-OH; configuration not given here) |
| 123 | Cc1ccc2cccc(OCc3c(Cl)ccc(S(=O)(=O)N4CCC[C@H]4C(=O)NC4CCN(C(=O)CN(C=NC(=O)OC(C)(C)C)NC(=O)OC(C)(C)C)CC4)c3Cl)c2n1 |
| 150 to 155 | CCCCCCCCCCCCCC(=O)NC1C(OCC(=O)O)OC(COC2OC(CO)C(OP(=O)(O)O)C(OC(=O)CNC(=O)CCCCCCCCCCC)C2NC(=O)CCCCCCCCCCCCC)C(O)C1OC(=O)CCCCCCCCCCCCC (configuration not stated) |
| 258 to 261 | CC1(C)CC(N(c2nc(N(C3CC(C)(C)N(O)C(C)(C)C3)C3CC(C)(C)N(O)C(C)(C)C3)nc(N(C3CC(C)(C)N(O)C(C)(C)C3)C3CC(C)(C)N(O)C(C)(C)C3)n2)C2CC(C)(C)N(O)C(C)(C)C2)CC(C)(C)N1O |
| 102 to 105 | Cc1ccc2cccc(OCc3c(Cl)ccc(S(=O)(=O)N4CCC[C@H]4C(=O)NC4CCN(C(=O)CCCN(C=NC(=O)OC(C)(C)C)NC(=O)OC(C)(C)C)CC4)c3Cl)c2n1 |

| SMILES | melting point [°C] |
| --- | --- |
| CC(C)CCCC(C)C1CCC2C3CC=C4CC(N(CCCNC(=O)CCNC(=O)CCCCCNc5ccc([N+](=O)[O-])cc5[N+](=O)[O-])S(=O)(=O)c5ccccc5[N+](=O)[O-])CCC4(C)C3CCC12C (configuration not stated) | 86 to 87 |
| O=C(Nc1c(Cl)cncc1Cl)C(=O)c1cn(Cc2c(F)cccc2[N+](=O)[O-])c2c(O)cccc12 | 308 to 310 |
| CCCCC(CC)CN1C(=O)C(=c2[nH]c(=c3[nH]c(=C4C(=O)N(CC(CC)CCCC)C(=O)N(CC(CC)CCCC)C4=O)c4ccccc34)c3ccccc23)C(=O)N(CC(CC)CCCC)C1=O (configuration not stated) | 198 to 206 |
| CC(C)CCCC(C)C1CCC2C3CC=C4CC(N(CCCNC(=O)CCNC(=O)CCNC(=O)CCCCCNc5ccc([N+](=O)[O-])cc5[N+](=O)[O-])S(=O)(=O)c5ccccc5[N+](=O)[O-])CCC4(C)C3CCC12C (configuration not stated) | 106 to 108 |
